Tests used:
RAW 264.7 cells [1] = assay: mMCP-1 N1pE/mMCP-1 ratio by ELISA in LPS stimulated RAW 264.7 treated with QCI; format: cell-based, mouse; details: RAW 264.7, 10 ng/ml LPS, 24 h, different QCI concentrations
Protocol: To capture mouse MCP-1, commercially available polyclonal antiserum rabbit anti mJE (Peprotech, Hamburg, Germany) as capture antibody which specifically binds mouse MCP-1 was diluted in PBS to 500 ng/ml and immobilized in polystyrene 96-well microtitre plates over 4-7 nights at 4° C. Thereafter, blocking occurred for 2 hours at room temperature with ELISA Blocker (Thermo Fisher Scientific, Waltham, USA). For preparation of the standard curve recombinant mMCP-1 was incubated with mouse Glutaminyl Cyclase (QC) in order to obtain mMCP-1 N1pE. The recombinant mMCP-1 N1pE standard peptide was serially diluted with ELISA Blocker from 1950 pg/ml down to 19.5 pg/ml and added to the wells in duplicate. Two wells filled with ELISA Blocker represent the standard curve value 0 pg/ml. After an incubation period of 2 hours at room temperature, plates were washed at least three times with TBS-T. For detection of mMCP-1 N1pE, the MCP-1 N1pE antibody clone 348-2C9 together with HRP-conjugated anti mouse antibody were both diluted in ELISA Blocker to final concentrations of 500 ng/ml. […] Absorption at 450/540 nm was determined by a Tecan Sunrise plate reader.
In order to analyse the effect of QCI on the ratio of mouse MCP-1 N1pE/mouse MCP-1, the mouse macrophage cell line RAW 264.7 was stimulated with LPS in the absence or presence of increasing concentrations of the QC inhibitor QCI. […] After 24 h cell culture supernatants were analyzed according to the protocol in Example 9. […]

RAW 264.7 cells [2] = assay: Western Blot of mMCP-1 N1pE and total mMCP-1 in RAW 264.7 cell culture supernatant; format: cell-based, mouse; details: RAW 264.7 supernatants, different QCI
Protocol: Stimulation of RAW 264.7 and inhibitor application occurred according to Example 9. For Western Blot analysis, proteins of cell culture supernatants were separated by application to a SDS gel electrophoresis. Separated proteins were electrically transferred to nitrocellulose membranes. Membranes were blocked for one hour with TBST-M (=TBST+5% skimmed milk) at room temperature with gentle shaking. Antibody incubation occurred over night at 4° C. on a rocking platform with the detection antibody for total mMCP-1 (Rat anti mouse MCP-1, R&D Systems) diluted to 1 μg/ml in equal volumes of TBST-M or the detection antibody for mMCP-1 N1pE (clone 332-4B8), respectively. Secondary anti-mouse and anti-rat antibody conjugated with horseradish peroxidase were used for signal detection, following standard procedures.

A549 cells = assay: hMCP-1 N1pE/hMCP-1 ratio by ELISA in TNFα+IL1β stimulated A549 treated with QCI; format: cell-based, human; details: 24 h, different QCI concentrations
Protocol: (§1) To capture human MCP-1, commercially available polyclonal antiserum goat anti-hMCP1-AF (R&D Systems, Minneapolis, USA) as capture antibody which specifically binds human MCP-1 was diluted in PBS to 250 ng/ml and immobilized in polystyrene 96-well microtitre plates overnight at 4° C. Thereafter, blocking occurred for 2 hours at room temperature with ELISA Blocker (Thermo Fisher Scientific, Waltham, USA). For preparation of the standard curve recombinant hMCP-1 was incubated with recombinant human Glutaminyl Cyclase (QC) in order to obtain hMCP-1 N1pE. The recombinant hMCP-1 N1pE standard peptide was serially diluted with ELISA Blocker from 1000 pg/ml down to 15.63 pg/ml and added to the wells in duplicate. Two wells filled with ELISA Blocker represent the standard curve value 0 pg/ml. After an incubation period of 2 hours at room temperature, plates were washed at least three times with TBS-T. For detection of hMCP-1 N1pE, the MCP-1 N1pE antibody clone 348-2C9 together with HRP-conjugated anti mouse antibody were both diluted in blocking buffer to final concentrations of 500 ng/ml. For detection of hMCP-1, the antibody mouse anti hMCP-1 (Peprotech, Hamburg, Germany) together with HRP-conjugated anti mouse antibody were also both diluted in blocking buffer to final concentrations of 500 ng/ml. The detection antibody/conjugate solutions were incubated for 2 hours at room temperature. Following several washes with TBS-T a colour reaction with commercially available HRP substrate TMB (SureBlue Reserve TMB Microwell Peroxidase Substrate (1-component), KPL, Gaithersburg, USA) was performed (30 minutes incubation at room temperature in the dark) and subsequently stopped by the addition of 1,2N H2SO4. Absorption at 450/540 nm was determined by a Tecan Sunrise plate reader.
A549 cells were stimulated for 24 h with 10 ng/ml TNFα and IL1β. Furthermore, QCI was applied in different concentrations to the cells. After 24 h cell culture supernatants were analyzed according to the protocol in Example 7.

[3] = system: Normal Human Dermal Fibroblasts (NHDF); assay: hMCP-1 N1pE/hMCP-1 ratio by ELISA in OSM+IL1β stimulated NHDF treated with QCI; format: cell-based; details: 10 μM QCI
Protocol: as §1, with “Following several washes with TBS-T a colour reaction with commercially available HRP substrate TMB (SureBlue Reserve TMB Microwell Peroxidase Substrate (1-component), KPL, Gaithersburg, USA) was performed (30 minutes incubation at room temperature in the dark) and subsequently stopped by the addition of 1,2N H2SO4.” left out
Quantitative detection of hMCP-1 and hMCP-1 N1pE occurred according to the protocol in […]. […] The cell culture supernatants were analyzed at different time points in order to examine time dependency of hMCP-1 and hMCP-1 N1pE secretion. […]
NHDF have been stimulated with 10 ng/ml OSM, IL1β and simultaneously treated with or without 10 μM QCI for 6 days. […] In order to examine the influence of QCI on hMCP-1 and hMCP-1 N1pE level, the cell culture supernatants were analyzed at different time points according to the ELISA protocol in Example 7.

For COc1ccc(NC(=S)NCCCn2ccnc2)cc1OC.Cl [QCI, 1-(3-(1H-imidazol-1-yl)propyl)-3-(3,4-dimethoxyphenyl)thiourea hydrochloride], the “amount of mMCP-1 N1pE” value (RAW 264.7 cells [1]) was “reduced by QCI in a concentration dependent manner”, the “amount of total mMCP-1” value (RAW 264.7 cells [1]) was “remains unaffected” and the “ratio of mMCP-1 N1pE/mMCP-1” value (RAW 264.7 cells [1]) was “decreases with increasing inhibitor concentrations”. For the same molecule, the “Western Blot signal of mMCP-1 N1pE” value (RAW 264.7 cells [2]; FIG. 22A) was “concentration dependent”, the “Western Blot signal intensity of total mMCP-1” value (RAW 264.7 cells [2]; FIG. 22B) was “no change” and the “amount of hMCP-1 N1pE” value (A549 cells) was “reduced by QCI in a concentration dependent manner”. For the same molecule, the “amount of total hMCP-1” value (A549 cells) was “nearly unaffected”, the “ratio of hMCP-1 N1pE/hMCP-1” value (A549 cells) was “decreases with increasing inhibitor concentrations” and the “hMCP-1 N1pE level after 1-2 days of OSM+IL1β stimulation” value ([3]; 1-2 days) was “below the limit of quantitation”. For the same molecule, the “hMCP-1 N1pE level” value ([3]; OSM+IL1β) was “decreased” and the “ratio of hMCP-1 N1pE/hMCP-1” value ([3]; OSM+IL1β) was “about 0,35”.

From patent publication US20110212853A1, “NOVEL DIAGNOSTIC METHOD” (PROBIODRUG AG, priority 2010, published 2011)
